Reference: US20150297591A1, “METHODS OF TREATING PULMONARY FIBROSIS” (Duke University, priority 2012, published 2015)

What was measured:
C57BL/6 mice = assay: Radiation fibrosis model in C57BL/6 mice (15 Gy thoracic RT), SMA immunostaining of lung; assay type: in vivo, mouse; settings: C57BL/6 lungs 20 wks post-15 Gy; 77427 IP twice weekly for 20 weeks; vs RT+PBS
From the text: Our first investigation tested the hypothesis that GRP contributes to RTP using an established mouse model of radiation fibrosis in C57BL/6 mice, which are prone to fibrosis. Following exposure to high-dose thoracic radiation (15 Gy), we treated mice intraperitoneally (IP) with either PBS or GRP blockade by using small molecule 77427. We quantified results of immunohistochemistry by using quantitative image analysis with ImageJ to determine whether GRP contributes to RT-induced inflammatory responses and/or fibrosis, specifically including assessment of active TGFβsignaling^7. As noted above, the first investigation (FIGS. 1 and 2) tested the hypothesis that GRP contributes to RTP using an established mouse model of radiation fibrosis in C57BL/6 mice. Following exposure to high-dose thoracic radiation (15 Gy), we treated mice intraperitoneally (IP) with either PBS or GRP blockade by using small molecule 77427. We quantified results of immunohistochemistry by using quantitative image analysis with ImageJ to determine whether GRP contributes to RT-induced inflammatory responses and/or fibrosis, specifically including assessment of active TGFβ signaling^7. In FIG. 1B, note that there is extensive immunostaining for myofibroblasts in the alveolar walls (arrows) in mice exposed to RT 20 weeks earlier and given only PBS. […]

C57L/J (L/J) mice [1] = assay: C57L/J model, Masson's trichrome staining for collagen in alveoli; assay type: in vivo, mouse
Description: (§1) In a second series of experiments, C57L/J (L/J) mice were treated with 15 Gy of thoracic radiation. L/J mice are exquisitely sensitive to even low doses of RT, and rapidly develop both pneumonitis and fibrosis. Groups of L/J mice were injected intraperitoneally with PBS, 77427 or 2A11, given as a single dose (20 nmole per mouse) at 24 hours post-RT.
In normal, Sham-irradiated lung (FIG. 5A), there are only traces of green collagen staining in the alveolar walls (arrows). In contrast, 15 weeks post-RT, early collagen deposition is widespread throughout the alveolar walls.
We quantified the area of green trichrome staining in the trichrome-stained slides (including those shown in FIG. 5), using ImageJ, normalized for the total area of alveolar tissue in the same photomicrograph, similar to the analysis used for FIG. 4.

C57L/J (L/J) mice [2] = assay: C57L/J model, hydroxyproline assay on whole mouse lungs (total lung collagen); assay type: in vivo; settings: 15 weeks post-RT, single dose, initial assay results
Description: as §1
As a second measure of pulmonary collagen levels, we carried out the hydroxyproline assay on whole mouse lungs from the same groups of mice as given in the legend to FIG. 3. There is a trend toward increased collagen at 15 weeks post-RT, which is confounded to some extent by the presence of collagen in connective tissue of blood vessels and airways in normal lung. Additional samples are being assayed in the near future.

C57L/J (L/J) mice [3] = assay: C57L/J model, toluidine blue staining for mast cells in lung sections; assay type: in vivo, mouse; settings: 15 weeks post-RT, single dose 24 h post-RT
Description: as §1
There were no detectable subpleural or interstitial mast cells in any sham controls, nor in any lungs at 10 weeks post-RT. At 15 weeks post-RT there was a dramatic accumulation of mast cells subpleurally (black arrows) and in the alveolar interstitium (red arrows). These were most abundant in mice treated with RT+PBS (FIG. 8A), with a reduction by over 50% in mice give 77427 (FIG. 8B). Total numbers of subpleural mast cells have been quantified for all of the lung tissue on each slide and will be normalized for the length of pleura present.

C57L/J (L/J) mice [4] = assay: C57L/J model of radiation pneumonitis (15 Gy thoracic RT), SMA immunostaining of lung; assay type: in vivo, mouse
Description: as §1
It was recently observed by Zelcko Vujaskovic et al that C57L/J (L/J) mice have radiation sensitivity very similar to humans^19, making the L/J model of radiation-pneumonitis most clinically relevant. Using this L/J model, we treated mice IP with a single dose of 77427 (10 nmol per mouse) given IP at 24 hours post-RT. At 15 weeks later, we observed early evidence of pulmonary fibrosis that was abrogated by the single dose of 77427 (FIG. 3). […] Therefore, we have included a claim that GRP blockade may be a treatment to prevent, arrest, or reverse pulmonary arteriopathy leading to pulmonary hypertension, another serious and poorly understood medical condition that is now treated symptomatically.

[5] = following RT; by decreasing free radical injury; cited from earlier work

Row | Structure (SMILES) | interstitial SMA staining (myofibroblasts in alveolar walls), early indicator of radiation fibrosis (C57BL/6 mice) | trichrome (collagen) levels in the alveoli (C57L/J (L/J) mice [1]; C57L/J lung 15 weeks post-15 Gy, single dose 24 h post-RT) | alveolar collagen deposition (quantified trichrome area normalized for alveolar tissue area) (C57L/J (L/J) mice [1]; C57L/J, 15 weeks post-high dose RT, RT+PBS vs RT+77427 P<0.001) | hydroxyproline content of whole lung (total lung collagen) (C57L/J (L/J) mice [2]) | reduction of mast cells (subpleural and alveolar interstitium) versus RT+PBS (C57L/J (L/J) mice [3]) | subpleural mast cells (toluidine blue staining) (C57L/J (L/J) mice [3]) | SMA+ myofibroblasts in small distal blood vessels (C57L/J (L/J) mice [4]; C57L/J lung 15 wks post-15 Gy, single dose IP 24 h post-RT) | early evidence of pulmonary fibrosis (SMA+ cells) (C57L/J (L/J) mice [4]; C57L/J, 15 weeks post-RT, single dose 10 nmol per mouse IP at 24 hours post-RT) | severity of RTP [5]
1 | Nc1nc(Cl)cc(NCCO)n1 [compound 77427] | abrogates this interstitial SMA staining | reduced trichrome levels in the alveoli to near baseline levels | abrogates alveolar collagen deposition | do not have elevated hydroxyproline content | over 50% | reduced | greatly reduces SMA+ myofibroblasts in small distal blood vessels | abrogated | 
2 | CCN1C=CC=C/C1=C1/C2=NC(=C(c3cccc[n+]3CC)C3=NC(=C(c4cccc[n+]4CC)c4ccc([n-]4)C(c4cccc[n+]4CC)=C4C=CC1=N4)C=C3)C=C2.[Cl-].[Cl-].[Cl-].[Cl-].[Cl-].[Mn+3] [AEOL10113] |  |  |  |  |  |  |  |  | can reduce the severity of RTP
